Source: patent publication US5474929A, “Selectable/reporter gene for use during genetic engineering of plants and plant cells” (National Research Council of Canada, priority 1993, dated 1995)

What was measured:
[1] = tested on: tobacco (Nicotiana tabacum cv. Xenthi) leaf explants; experiment: Effect on growth of tobacco leaf explants (fresh weight increase); assay type: cell-based; details: average after 3 weeks in culture
Procedure: The fresh weight increase was determined after 3 weeks in culture.

[2] = tested on: plant cells, such as soybean (SB-1), tobacco and Brassica sp.; experiment: Inhibition of plant cell growth by deoxyadenosine and analogs in culture medium; assay type: cell-based
[3] = tested on: leaf discs from ADA transformed plants 18-2, 18-3; experiment: Culture of leaf discs from ADA transformed plants on selective media; assay type: cell-based, Nicotiana tabacum
Procedure: (§1) Leaf discs cut from Nicotiana tabacum cv. Xanthi were soaked in a dilution of an overnight culture of Agrobacterium/pDY18 for several seconds, blotted dry and placed on Murashige and Skoog medium containing Gamborg's (MS/B5 medium containing 30 g/l sucrose, 2 mg/l2,4-dichlorophenoxy acetic acid and […] phytoagar). After 2 days of co-cultivation the leaf discs were placed on medium containing ara-A (100 μM) or cordycepin (50 μM) as selective agents and 500 μg/ml carbenicillin to inhibit Agrobacterium growth. The shoots which were regenerated were transferred to rooting medium containing MS basal medium containing Gamborg's vitamins (MS/B5, Sigma), 30 g/l sucrose, 0.1 mg/l a-naphthalene acetic acid (NAA), 500 μg/ml carbenicillin and 100 μg/ml kanamycin and 6 g/l phytoagar, adjusted to pH 5.6. Regenerated plants were transferred to soil and grown at 25° C. in an 18/6 hrs day/night cycle. Two plants designated 18-2 and 18-3 were chosen for further study.
(§2) Leaf discs cut from plant 18-2, 18-3, and Normal (non-transformed) plants were cultured on agar MS agar media containing either no selective agent or ara-A (100 μM) or cordycepin (50 μM).

[4] = tested on: leaf discs from Normal (non-transformed) plants; experiment: Culture of leaf discs from non-transformed plants on selective media; assay type: cell-based, Nicotiana tabacum
Procedure: as §1, §2

[5] = tested on: soybean cells (Glycine max) line SB-1; experiment: Effect on growth of soybean cells in culture (dry weight increase); assay type: cell-based; details: for Increase In Dry Weight: average after 6 days in culture
Procedure: Aliquots of cells were subcultured to medium containing either 0, 0.74 μM, 7.4 μM, 74 μM of 2'-deoxyadenosine and cultured for 6 days. The cells were then harvested on filters, oven dried and weighed.

| Compound | Increase in Fresh Weight ([1]; 40 μM) | Increase in Fresh Weight ([1]; 80 μM) | Increase in Fresh Weight ([1]; 160 μM) | growth of plant cells in presence of compound in culture medium [2] | further results |
| --- | --- | --- | --- | --- | --- |
| Nc1ncnc2c1ncn2[C@@H]1O[C@H](CO)[C@@H](O)[C@H]1O [Adenosine] | 0.95 ± 0.069 g | 0.81 ± 0.060 g | 0.94 ± 0.056 g | – | Increase in Fresh Weight ([1]; 320 μM): 0.57 ± 0.052 g |
| OC[C@H]1O[C@@H](n2cnc3c(Cl)ncnc32)[C@H](O)[C@@H]1O [6-chloropurine riboside] | – | – | – | inhibited | – |
| Nc1ncnc2c1ncn2[C@H]1CC[C@@H](CO)O1 [2'-3'-dideoxyadenosine] | – | – | – | inhibited | – |
| Nc1ncnc2c1ncn2[C@@H]1O[C@H](CO)C[C@H]1O [Cordycepin, 3'-deoxyadenosine] | 0.04 + 0.049 g | 0.02 ± 0.001 g | 0.02 ± 0.001 g | inhibited | Increase in Fresh Weight ([1]; 5 μM): 0.61 ± 0.059 g; Increase in Fresh Weight ([1]; 10 μM): 0.10 ± 0.016 g; Increase in Fresh Weight ([1]; 20 μM): 0.06 ± 0.008 g; growth of tissues on selective medium ([3]; transformed plant 18-2, cordycepin 50 μM): proliferated; growth of tissues on selective medium ([3]; transformed plant 18-3, cordycepin (50 μM)): proliferated; growth of tissues on selective medium ([4]; cordycepin 50 μM): No growth was observed |
| COc1ncnc2c1ncn2[C@@H]1O[C@H](CO)[C@@H](O)[C@H]1O [6-methoxypurine riboside] | – | – | – | inhibited | – |
| Nc1ncnc2c1ncn2[C@H]1C[C@H](O)[C@@H](CO)O1 [2'-deoxyadenosine] | 0.74 ± 0.058 g | 0.96 ± 0.050 g | 0.32 ± 0.038 g | inhibited | Increase in Fresh Weight ([1]; 320 μM): 0.07 ± 0.005 g; Increase in Fresh Weight ([1]; 640 μM): 0.04 ± 0.003 g; Increase In Dry Weight ([5]; 0.74 μM): 6.05 mg; Increase In Dry Weight ([5]; 7.40 μM): 3.51 mg; Increase In Dry Weight ([5]; 74.00 μM): 1.93 mg; effect on growth of soybean cells ([5]; all three concentrations (0.74, 7.4, 74 μM), 6 days): inhibitory |
| Nc1ncnc2c1ncn2[C@@H]1O[C@H](CO)[C@@H](O)[C@@H]1O [Arabinofuranosyl, 9-B-D-arabinofuranosyl adenine] | 0.10 ± 0.048 g | 0.05 ± 0.008 g | 0.02 ± 0.001 g | inhibited | Increase in Fresh Weight ([1]; 5 μM): 0.56 ± 0.047 g; Increase in Fresh Weight ([1]; 10 μM): 0.32 ± 0.037 g; Increase in Fresh Weight ([1]; 20 μM): 0.23 ± 0.025 g; growth of tissues on selective medium ([3]; transformed plant 18-2, ara-A 100 μM): proliferated; growth of tissues on selective medium ([3]; transformed plant 18-3, ara-A (100 μM)): proliferated; growth of tissues on selective medium ([4]; ara-A 100 μM): No growth was observed |
| Nc1nc(Cl)nc2c1ncn2[C@@H]1O[C@H](CO)[C@@H](O)[C@H]1O [2-chloroadenosine] | – | – | – | inhibited | – |
| Nc1nc(N)c2ncn([C@@H]3O[C@H](CO)[C@@H](O)[C@H]3O)c2n1 [2,6-diaminopurine riboside] | – | – | – | inhibited | – |
| Nc1ncnc2c1ncn2[C@@H]1O[C@H](CO)[C@H](O)[C@H]1O [xyl-A, 9-B-D-xylofuranosyl adenine] | – | – | – | inhibited | – |
